Key:
Format in all cases: in vivo, human
[1] = system: patients having Fragile X Syndrome (FXS); test: Clinical Global Impression (CGI) scale in clinical study, by FMR1 methylation status / mRNA expression; conditions: for CGI-global improvement, treatment difference / CGI-efficacy index, treatment difference: versus placebo, adjusted for baseline; for CGI-global improvement, treatment difference: decrease = improvement; for CGI-efficacy index, treatment difference: increase = improvement
Description: (§1) As used herein, “an mGluR5 responder” is an individual having FXS who is likely following therapeutic treatment with an mGluR5 antagonist to show improved behavioral symptoms as assessed using the Aberrant Behavior Checklist—Community Edition (ABC-C) measure of behavior (Bihm et al., Am. J. Ment Retard 96:209-211). The ABC-C measurement looks at various behaviors including stereotypic behavior, hyperactivity, inappropriate speech, and restricted interests. […] The behavioral symptoms may also be assessed by other methods, such as Clinical Global Impression (CGI) scale, Social Responsiveness Scale (SRS), or Repetitive Behavior Scale-Revised (RBS-R). Individuals showing an improvement according to these tests will also be determined to be an mGluR5 responder.
(§2) The present examples were performed as a follow up to a clinical trial which investigated whether the mGluR5 antagonist (−)-(3aR,4S,7aR)-4-Hydroxy-4-m-tolylethynyl-octahydro-indole-1-carboxylic acid methyl ester could provide beneficial treatment to a subject having FXS. The present study was set up to identify if a subset of patients exist that respond to (−)-(3aR,4S,7aR)-4-Hydroxy-4-m-tolylethynyl-octahydro-indole-1-carboxylic acid methyl ester treatment. In an attempt to identify such a subset of patients who respond to (−)-(3aR,4S,7aR)-4-Hydroxy-4-m-tolylethynyl-octahydro-indole-1-carboxylic acid methyl ester treatment, a study was conducted to investigate the relationship between FMR1 methylation/mRNA expression and (−)-(3aR,4S,7aR)-4-Hydroxy-4-m-tolylethynyl-octahydro-indole-1-carboxylic acid methyl ester efficacy in the study.
(§3) Among the 30 patients who completed the clinical study, 26 consented for pharmacogenetic/pharmacogenomic assessments. Genomic DNA was extracted from whole blood according to the instructions from Gentra (Minneapolis, Minn.). Total RNA was extracted from whole blood according to the instructions from Qiagen (Valencia, Calif.). A total of 26 DNA and 24 RNA samples were successfully extracted and analyzed. In addition, normal control DNAs were purchased from Coriell Institute (Camden, N.J.).
(§4) Genomic DNA was treated with bisulfite (Qiagen, Valencia, Calif.). MSP was performed using the CpG WIZ Fragile X Amplification Kit from Chemicon (Temecula, Calif.) according to manufacture's instruction. A total of 26 patients and 4 normal controls were analyzed.
(§5) FMR1 mRNA expression was measured by Taqman real-time PCR. The primers and probe were designed by Applied Biosystems (Foster City, Calif.; fragile X mental retardation 1 Hs 00924544_ml, Glyceraldehyde-3-phosphate dehydrogenase Hs 99999905_ml; ubiquitin C Hs 00824723_ml)
(§6) The expression levels of the control genes, GAPDH and UBC, were used to adjust for inter-sample variability. The data is presented as normalized Ct (cycle threshold). A Ct value≧36 is considered to be the background of the assay. A total of 24 patients and 9 normal controls were analyzed.
(§7) Genomic DNA was treated with […] (Qiagen, Valencia, Calif.). The following primers were used to amplify the FMR1 promoter with 22 CpG sites: 5′-[…]-3′ (SEQ ID NO:10); and 5′-[…]-3′ (SEQ ID NO:11). The 196-bp FMR1 promoter was cloned using the TA cloning kit from Invitrogen (Carlsbad, Calif.) and 7-13 clones per patient were sequenced using ABI3730XL (Foster City, Calif.). More details can be found in the BMD report. A total of 26 patients and 4 normal controls were analyzed.

[2] = system: patients having Fragile X Syndrome (FXS); test: as above; conditions: day 19; patients fully methylated (probe-based methylation assay, 12 patients analysed) and/or not expressing FMR1 mRNA; p<0.001
[3] = system: patients having Fragile X Syndrome (FXS); test: Aberrant Behavior Checklist-Community Edition (ABC-C) scores in clinical study, by FMR1 methylation status / mRNA expression; conditions: for ABC-C improvement in response over placebo / ABC-C Subscale I (Irritability), treatment difference / ABC-C Subscale II (Lethargy), treatment difference / ABC-C Subscale III (Stereotype), treatment difference / ABC-C Subscale IV (Hyperactivity), treatment difference / ABC-C Subscale V (Inappropriate Speech), treatment difference / ABC-C Total of subscales, treatment difference: day 19; for ABC-C Subscale I (Irritability), treatment difference / ABC-C Subscale II (Lethargy), treatment difference / ABC-C Subscale III (Stereotype), treatment difference / ABC-C Subscale IV (Hyperactivity), treatment difference / ABC-C Subscale V (Inappropriate Speech), treatment difference / ABC-C Total of subscales, treatment difference: versus placebo, adjusted for baseline
Description: as §1, §2, §3, §4, §5, §6, §7

[4] = system: patients having Fragile X Syndrome (FXS); test: Clinical response versus placebo in clinical study (measure not given)
Description: As used herein, “an mGluR5 responder” is an individual having FXS who is likely following therapeutic treatment with an mGluR5 antagonist to show improved behavioral symptoms as assessed using the Aberrant Behavior Checklist—Community Edition (ABC-C) measure of behavior (Bihm et al., Am. J. Ment Retard 96:209-211). The ABC-C measurement looks at various behaviors including stereotypic behavior, hyperactivity, inappropriate speech, and restricted interests. […] The behavioral symptoms may also be assessed by other methods, such as Clinical Global Impression (CGI) scale, Social Responsiveness Scale (SRS), or Repetitive Behavior Scale-Revised (RBS-R). Individuals showing an improvement according to these tests will also be determined to be an mGluR5 responder. […]
Among the 30 patients who completed the clinical study, 26 consented for pharmacogenetic/pharmacogenomic assessments. […] A total of 26 DNA and 24 RNA samples were successfully extracted and analyzed. […]
Genomic DNA was treated with bisulfite (Qiagen, Valencia, Calif.). […] A total of 26 patients and 4 normal controls were analyzed.
FMR1 mRNA expression was measured by Taqman real-time PCR. […]
The expression levels of the control genes, GAPDH and UBC, were used to adjust for inter-sample variability. […] A total of 24 patients and 9 normal controls were analyzed. […]

[5] = fully methylated patients after reclassification (MSP, bisulfite-sequencing, additional MSP), p<0.001
[6] = day 19, patients who did not express FMR1 mRNA (n = 7)
[7] = day 19, patients who expressed FMR1 mRNA (n = 17)
[8] = day 19, patients with full methylation (n = 8)
[9] = day 19, patients with partial methylation (n = 18)
[10] = day 19, reclassified: patients with full methylation (by MSP and sequencing) (n = 7)
[11] = day 19, reclassified: patients with partial methylation (by MSP and sequencing) (n = 18)
[12] = patients who did not express FMR1 mRNA (n = 7)
[13] = patients who expressed FMR1 mRNA (n = 17)
[14] = patients with full methylation (n = 8)
[15] = patients with partial methylation (n = 18)
[16] = reclassified: patients with full methylation (determined by MSP and sequencing) (n = 7)
[17] = reclassified: patients with partial methylation (determined by MSP and sequencing) (n = 18)

SMILES: COC(=O)N1CC[C@@H]2[C@H]1CCC[C@@]2(O)C#Cc1cccc(C)c1 [(−)-(3aR,4S,7aR)-4-Hydroxy-4-m-tolylethynyl-octahydro-indole-1-carboxylic acid methyl ester]
- CGI-efficacy index improvement in response over placebo ([1]; day 19, patients fully methylated (initial MSP) or not expressing FMR1 mRNA, p<0.001): significantly greater improvement
- CGI-efficacy index response versus placebo [1, 5]: significantly higher than placebo
- CGI-global improvement, treatment difference [1, 6]: −2.02
- CGI-efficacy index, treatment difference [1, 6]: 1.99
- CGI-global improvement, treatment difference [1, 7]: 0.56
- CGI-efficacy index, treatment difference [1, 7]: −0.47
- CGI-global improvement, treatment difference [1, 8]: −1.94
- CGI-efficacy index, treatment difference [1, 8]: 1.86
- CGI-global improvement, treatment difference [1, 9]: 0.67
- CGI-efficacy index, treatment difference [1, 9]: −0.58
- CGI-global improvement, treatment difference [1, 10]: −1.78
- CGI-efficacy index, treatment difference [1, 10]: 1.76
- CGI-global improvement, treatment difference [1, 11]: 0.58
- CGI-efficacy index, treatment difference [1, 11]: −0.43
- CGI-efficacy index improvement in response over placebo [2]: significantly greater improvement
- ABC-C improvement in response over placebo ([3]; patients fully methylated (initial MSP) or not expressing FMR1 mRNA, p<0.001): significantly greater improvement
- ABC-C improvement in response over placebo ([3]; patients fully methylated (probe-based methylation assay, 12 patients analysed) and/or not expressing FMR1 mRNA, p<0.001): significantly greater improvement
- ABC-C response versus placebo [3, 5]: significantly higher than placebo
- ABC-C Subscale I (Irritability), treatment difference [3, 12]: −3.69
- ABC-C Subscale II (Lethargy), treatment difference [3, 12]: −6.71
- ABC-C Subscale III (Stereotype), treatment difference [3, 12]: −3.03
- ABC-C Subscale IV (Hyperactivity), treatment difference [3, 12]: −9.12
- ABC-C Subscale V (Inappropriate Speech), treatment difference [3, 12]: −4.66
- ABC-C Total of subscales, treatment difference [3, 12]: −32.19
- ABC-C Subscale I (Irritability), treatment difference [3, 13]: −0.81
- ABC-C Subscale II (Lethargy), treatment difference [3, 13]: 1.93
- ABC-C Subscale III (Stereotype), treatment difference [3, 13]: 0.32
- ABC-C Subscale IV (Hyperactivity), treatment difference [3, 13]: −0.16
- ABC-C Subscale V (Inappropriate Speech), treatment difference [3, 13]: 1.09
- ABC-C Total of subscales, treatment difference [3, 13]: 2.23
- ABC-C Subscale I (Irritability), treatment difference [3, 14]: −4.33
- ABC-C Subscale II (Lethargy), treatment difference [3, 14]: −6.55
- ABC-C Subscale III (Stereotype), treatment difference [3, 14]: −3.96
- ABC-C Subscale IV (Hyperactivity), treatment difference [3, 14]: −8.77
- ABC-C Subscale V (Inappropriate Speech), treatment difference [3, 14]: −4.48
- ABC-C Total of subscales, treatment difference [3, 14]: −30.85
- ABC-C Subscale I (Irritability), treatment difference [3, 15]: −0.67
- ABC-C Subscale II (Lethargy), treatment difference [3, 15]: 3.76
- ABC-C Subscale III (Stereotype), treatment difference [3, 15]: 0.89
- ABC-C Subscale IV (Hyperactivity), treatment difference [3, 15]: 0.42
- ABC-C Subscale V (Inappropriate Speech), treatment difference [3, 15]: 1.09
- ABC-C Total of subscales, treatment difference [3, 15]: 5.66
- ABC-C Subscale I (Irritability), treatment difference [3, 16]: −2.66
- ABC-C Subscale II (Lethargy), treatment difference [3, 16]: −5.53
- ABC-C Subscale III (Stereotype), treatment difference [3, 16]: −5.06
- ABC-C Subscale IV (Hyperactivity), treatment difference [3, 16]: −8.55
- ABC-C Subscale V (Inappropriate Speech), treatment difference [3, 16]: −4.31
- ABC-C Total of subscales, treatment difference [3, 16]: −27.82
- ABC-C Subscale I (Irritability), treatment difference [3, 17]: −1.15
- ABC-C Subscale II (Lethargy), treatment difference [3, 17]: 2.66
- ABC-C Subscale III (Stereotype), treatment difference [3, 17]: 0.78
- ABC-C Subscale IV (Hyperactivity), treatment difference [3, 17]: −0.21
- ABC-C Subscale V (Inappropriate Speech), treatment difference [3, 17]: 0.81
- ABC-C Total of subscales, treatment difference [3, 17]: 3.10
- Difference between compound and placebo ([4]; patients partially methylated (initial MSP) or expressing FMR1 mRNA): no significant differences
- Difference between compound and placebo ([4]; patients partially methylated (probe-based methylation assay) or expressing FMR1 mRNA): no significant differences

Reference: patent US20130052644A1, “Predictive Markers Useful in the Treatment of Fragile X Syndrome (FXS)” (priority 2010, published 2013)
